Source: US6251897A, “6-phenyltetrahydro-1,3-oxazin-2-one derivative and pharmaceutical composition containing the same” (Nikken Chemicals Co., LTD, priority 1996, dated 2001)

Test system: Type IV PDE
Assay: PDE inhibitory activity, type IV isozyme (3H-cAMP hydrolysis)
Type: biochemical
Settings: partially purified from rat neutrophils, 30° C., 30 minutes
Method: Type I, III, IV, and V PDE isozymes were prepared to study the PDE inhibitory activities and selectivities with the compound of the invention [Trends Pharmacol. Sci., 12, 19-27 (1992)]. Type I PDE was purchased from Sigma Corp. Type III, IV, and V PDE isozymes were partially purified from rats platelets (Type III and V) or neutrophils (Type IV). Each enzyme source was homogenized in a buffer (pH 6.5) containing 20 mM bisTris, 2 mM EDTA (ethylenediamine tetraacetate), 0.1 mM PMSF (phenylmethylsulfonyl fluoride), 5 mM 2-mercaptoethanol, 0.001 mM pepstatin, and 0.01 mM leupeptin and was centrifuged at 30,000×G for 30 minutes to obtain a supernatant, which was applied to an ion exchange column (Q-sepharose First Flow, Pharmacia Corp.) and was eluted with 0 to 1M sodium acetate. Partially purified isozymes were identified by observing the effects of conventional inhibitors.
Each PDE isozyme and the test compound dissolved in DMSO (dimethyl sulfoxide) were added to 50 mM Tris-HCl buffer containing 5 mM magnesium chloride. ^3 H-cAMP (for type III and IV PDE) or ^3 H-cGMP (for type I and V PDE) were added as substrates and were reacted at 30° C. for 30 minutes. The reaction was terminated by placing the test tube in boiling water of 100° C. for 5 minutes. The nucleotides formed by PDE were broken down by 5'-nucleotidase to ^3 H-adenosine or ^3 H-guanosine. The unreacted substrate and reaction product were separated through an ion-exchange column (QAE sephadex, Pharmacia Corp.) The eluted ^3 H-nucleoside was measured for its radioactivity by a liquid scintillation counter. The inhibiting activities of the compound of the present invention are shown by the IC50 value (M). Further, the inhibitory activities of the test samples against Type I, III, and V are 1/10 or less than that against type IV.

| IC50 [µM] | SMILES |
| --- | --- |
| 1.9 | COc1ccc(C2CCNC(=O)O2)cc1O[C@H]1CC[C@H](c2ccccc2)CC1 (relative stereo) [Compound No. 78, 6-[4-methoxy-3-(trans-4-phenylcyclohexyloxy)phenyl]-3,4,5,6-tetrahydro-2H-1,3-oxazin-2-one] |
| 1.2 | COc1ccc(C2CCN(C)C(=O)O2)cc1O[C@H]1CC[C@H](c2ccccc2)CC1 (relative stereo) [Compound No. 79, 6-[4-methoxy-3-(trans-4-phenylcyclohexyloxy)phenyl]-3-methyl-3,4,5,6-tetrahydro-2H-1,3-oxazin-2-one] |
| 2.7 | COc1ccc([C@H]2OC(=O)NC[C@H]2c2ccccc2)cc1OC1CCCC1 (relative stereo) [Compound No. 91, rel-(5R,6S)-6-(3-cyclopentyloxy-4-methoxyphenyl)-5-phenyl-3,4,5,6-tetrahydro-2H-1,3-oxazin-2-one] |
| 0.9 | COc1ccc([C@@H]2OC(=O)NC[C@H]2c2ccccc2)cc1OC1CCCC1 (relative stereo) [Compound No. 92, rel-(5R,6R)-6-(3-cyclopentyloxy-4-methoxyphenyl)-5-phenyl-3,4,5,6-tetrahydro-2H-1,3-oxazin-2-one] |
| 4.3 | COc1ccc(C2(c3ccccc3)CCNC(=O)O2)cc1OC1CCCC1 (centres unmarked) [Compound No. 7, 6-(3-cyclopentyloxy-4-methoxyphenyl)-6-phenyl-3,4,5,6-tetrahydro-2H-1,3-oxazin-2-one] |
| 0.073 | COc1ccc(C2CCN(Cc3ccc4ccccc4n3)C(=O)O2)cc1OC1CCCC1 (centres unmarked) [Compound No. 12, 6-(3-cyclopentyloxy-4-methoxyphenyl)-3-(2-quinolylmethyl)-3,4,5 6-tetrahydro-2H-1,3-oxazin-2-one] |
| 1.7 | COc1ccc(C2CCN(Cc3cccc4ccccc34)C(=O)O2)cc1OC1CCCC1 (centres unmarked) [Compound No. 13, 6-(3-cyclopentyloxy-4-methoxyphenyl)-3-(1-naphthylmethyl)-3,4,5,6-tetrahydro-2H-1 3-oxazin-2-one] |
| 0.98 | COc1ccc(C2CCN(Cc3ccc4ccccc4c3)C(=O)O2)cc1OC1CCCC1 (centres unmarked) [Compound No. 15, 6-(3-cyclopentyloxy-4-methoxyphenyl)-3-(2-naphthylmethyl)-3,4,5,6-tetrahydro-2H-1,3-oxazin-2-one] |
| 2.1 | CCCCN1CCC(c2ccc(OC)c(OC3CCCC3)c2)OC1=O (centres unmarked) [Compound No. 17, 3-butyl-6-(3-cyclopentyloxy-4-methoxyphenyl)-3,4,5,6-tetrahydro-2H-1,3-oxazin-2-one] |
| 0.41 | COc1ccc(C2CCN(C(=O)c3ccccc3)C(=O)O2)cc1OC1CCCC1 (centres unmarked) [Compound No. 18, 3-benzoyl-6-(3-cyclopentyloxy-4-methoxyphenyl)-3,4,5,6-tetrahydro-2H-1,3-oxazin-2-one] |
| 1.8 | CCOC(=O)CN1CCC(c2ccc(OC)c(OC3CCCC3)c2)OC1=O (centres unmarked) [Compound No. 19, 6-(3-cyclopentyloxy-4-methoxyphenyl)-3-(ethoxycarbonylmethyl)-3,4,5,6-tetrahydro-2H-1,3-oxazin-2-one] |
| 5.9 | COc1ccc(C2(C)CCN(Cc3ccncc3)C(=O)O2)cc1OC1CCCC1 (centres unmarked) [Compound No. 22, 6-(3-cyclopentyloxy-4-methoxyphenyl)-6-methyl-3-(4-pyridylmethyl)-3,4,5,6-tetrahydro-2H-1,3-oxazin-2-one] |
| 21 | COc1ccc(C2(c3nccs3)CCNC(=O)O2)cc1OC (centres unmarked) [Compound No. 27, 6-(3,4-dimethoxyphenyl)-6-(2-thiazolyl)-3,4,5,6-tetrahydro-2H-1,3-oxazin-2-one] |
| 3.4 | COc1ccc(C2(c3cccs3)CCNC(=O)O2)cc1OC1CCCC1 (centres unmarked) [Compound No. 29, 6-(3-cyclopentyloxy-4-methoxyphenyl)-6-(2-thienyl)-3,4,5,6-tetrahydro-2H-1,3-oxazin-2-one] |
| 9 | CCCCC1(c2ccc(OC)c(OC3CCCC3)c2)CCNC(=O)O1 (centres unmarked) [Compound No. 30, 6-butyl-6-(3-cyclopentyloxy-4-methoxyphenyl)-3,4,5,6-tetrahydro-2H-1,3-oxazin-2-one] |
| 4.6 | COc1ccc(C2(c3nccs3)CCNC(=O)O2)cc1OC1CCCC1 (centres unmarked) [Compound No. 31, 6-(3-cyclopentyloxy-4-methoxyphenyl)-6-(2-thiazolyl)-3,4,5,6-tetrahydro-2H-1,3-oxazin-2-one] |

| IC50 [µM] | SMILES |
| --- | --- |
| 32 | COc1ccc(C2CCN(CCN3CCCCC3)C(=O)O2)cc1OC1CCCC1 (centres unmarked) [Compound No. 32, 6-(3-cyclopentyloxy-4-methoxyphenyl) -3-[2-(1-piperidyl)ethyl]-3,4,5,6-tetrahydro-2H-1,3-oxazin-2-one] |
| 8.8 | COc1ccc(C2CCN(CCN3CCOCC3)C(=O)O2)cc1OC1CCCC1 (centres unmarked) [Compound No. 33, 6-(3-cyclopentyloxy-4-methoxyphenyl)-3-[2-(4-morpholino)ethyl]-3,4,5,6-tetrahydro-2H-1,3-oxazin-2-one] |
| 0.86 | COc1ccc(C2CCN(Cc3c(C)c4ccccc4n3C(C)=O)C(=O)O2)cc1OC1CCCC1 (centres unmarked) [Compound No. 34, 3-(1-acetyl-3-methyl-2-indolylmethyl)-6-(3-cyclopentyloxy-4-methoxyphenyl)-3,4,5,6-tetrahydro-2H-1,3-oxazin-2-one] |
| 2 | COc1ccc(C2CCN(Cc3ccco3)C(=O)O2)cc1OC1CCCC1 (centres unmarked) [Compound No. 35, 6-(3-cyclopentyloxy-4-methoxyphenyl)-3-(2-furylmethyl)-3,4,5,6-tetrahydro-2H-1,3-oxazin-2-one] |
| 1.6 | COc1ccc(C2(c3cccnc3)CCNC(=O)O2)cc1OC1CCCC1 (centres unmarked) [Compound No. 36, 6-(3-cyclopentyloxy-4-methoxyphenyl)-6-(3-pyridyl)-3,4,5,6-tetrahydro-2H-1,3-oxazin-2-one] |
| 4.5 | COc1ccc(C2CCN(Cc3cnccn3)C(=O)O2)cc1OC1CCCC1 (centres unmarked) [Compound No. 37, 6-(3-cyclopentyloxy-4-methoxyphenyl) -3-(2-pyrazinylmethyl)-3,4,5,6-tetrahydro-2H-1,3-oxazin-2-one] |
| 2.2 | COc1ccc(C2CCN(Cc3cccs3)C(=O)O2)cc1OC1CCCC1 (centres unmarked) [Compound No. 38, 6-(3-cyclopentyloxy-4-methoxyphenyl)-3-(2-thienylmethyl)-3,4.56-tetrahydro-2H-1,3-oxazin-2-one] |
| 18 | COc1ccc(C2(c3ccccn3)CCNC(=O)O2)cc1OC1CCCC1 (centres unmarked) [Compound No. 39, 6-(3-cyclopentyloxy-4-methoxyphenyl)-6-(2-pyridyl)-3,4,5,6-tetrahydro-2H-1,3-oxazin-2-one] |
| 0.73 | COc1ccc(C2CCNC(=O)O2)cc1OCCCCCc1ccccc1 (centres unmarked) [Compound No. 41, 6-[4-methoxy-3-(5-phenylpentyloxy)phenyl]-3,4,5,6-tetrahydro-2H-1,3-oxazin-2-one] |
| 1 | COc1ccc(C2CCN(C)C(=O)O2)cc1OCCCCCc1ccccc1 (centres unmarked) [Compound No. 42, 6-[4-methoxy-3-(5-phenylpentyloxy)phenyl]-3-methyl-3,4,5,6-tetrahydro-2H-1,3-oxazin-2-one] |
| 1.5 | COc1ccc(C2CCN(C)C(=O)O2)cc1OCCc1ccccc1 (centres unmarked) [Compound No. 44, 6-(4-methoxy-3-phenethyloxyphenyl)-3-methyl-3,4,5,6-tetrahydro-2H-1,3-oxazin-2-one] |
| 0.26 | COc1ccc(C2(C)CCNC(=O)O2)cc1OCCCCCc1ccccc1 (centres unmarked) [Compound No. 45, 6-[4-methoxy-3-(5-phenylpentyloxy)phenyl]-6-methyl-3,4,5,6-tetrahydro-2H-1,3-oxazin-2-one] |
| 0.22 | COc1ccc(C2(C)CCN(C)C(=O)O2)cc1OCCCCCc1ccccc1 (centres unmarked) [Compound No. 47, 3,6-dimethyl-6-[4-methoxy-3-(5-phenylpentyloxy)phenyl]-3,4,5,6-tetrahydro-2H-1,3-oxazin-2-one] |
| 0.7 | COc1ccc(C2(C)CCN(C)C(=O)O2)cc1OCCc1ccccc1 (centres unmarked) [Compound No. 48, 3. 6-dimethyl-6-(4-methoxy-3-phenethyloxyphenyl)-3,4,5,6-tetrahydro-2H-1,3-oxazin-2-one] |
| 1.7 | COc1ccc(C2CCNC(=O)O2)cc1OCCc1ccccn1 (centres unmarked) [Compound No. 55, 6-[4-methoxy-3-[2-(2-pyridyl)ethoxy]phenyl]-3,4,5,6-tetrahydro-2H-1,3-oxazin-2-one] |

| SMILES | IC50 [µM] |
| --- | --- |
| CCCCOc1cc(C2CCNC(=O)O2)ccc1OC (centres unmarked) [Compound No. 3, 6-(3-butoxy-4-methoxyphenyl)-3,4,5,6-tetrahydro-2H-1,3-oxazin-2-one] | 6.8 |
| CCCCOc1cc(C2(C)CCNC(=O)O2)ccc1OC (centres unmarked) [Compound No. 52, 6-(3-butoxy-4-methoxyphenyl)-6-methyl-3,4,5,6-tetrahydro-2H-1,3-oxazin-2-one] | 1.4 |
| CCCCOc1cc(C2CCN(C)C(=O)O2)ccc1OC (centres unmarked) [Compound No. 53, 6-(3-butoxy-4-methoxyphenyl)-3-methyl-3,4,5,6-tetrahydro-2H-1,3-oxazin-2-one] | 9.1 |
| CCCCOc1cc(C2(C)CCN(C)C(=O)O2)ccc1OC (centres unmarked) [Compound No. 54, 6-(3-butoxy-4-methoxyphenyl)-3,6-dimethyl-3,4,5,6-tetrahydro-2H-1,3-oxazin-2-one] | 2 |
